Source: publication PMC6333442, “Conserved allosteric pathways for activation of TRPV3 revealed through engineering vanilloid-sensitivity” (eLife, 2019)

Key:
[1] = test system: TRPV3-6M/V2P (pore domain of rat TRPV2 in TRPV3-6M); assay: Two-electrode voltage clamp, TRPV3-6M/V2P chimera in oocytes; format: cell-based, mouse; details: RR 50 µM
Experimental: All channel constructs were expressed in Xenopus laevis oocytes and studied using the two-electrode voltage clamp technique (TEVC) following 1–4 days of incubation after cRNA injection. The animal care and experimental procedures were performed in accordance with the Guide for the Care and Use of Laboratory Animals and were approved by the Animal Care and Use Committee of the National Institute of Neurological Disorders and Stroke (Animal protocol number 1253–17). Oocytes were removed surgically and incubated with agitation for 1 hr in a solution containing (in mM) 82.5 NaCl, 2.5 KCl, 1 MgCl2, 5 HEPES, pH 7.6 (with NaOH), and collagenase (2 mg/ml; Worthington Biochemical, Lakewood, NJ). Defolliculated oocytes were injected with cRNA for each of the constructs and incubated at 17°C in a solution containing (in mM) 96 NaCl, 2 KCl, 1 MgCl2, 1.8 CaCl2, 5 HEPES, pH 7.6 (with NaOH), and gentamicin (50 μg/ml, GIBCO-BRL, Gaithersburg, MD). Oocyte membrane voltage was controlled using an OC-725C oocyte clamp (Warner Instruments, Hamden, CT). Data were filtered at 1–3 kHz and digitized at 20 kHz using pClamp software (Molecular Devices, Sunnyvale, CA) and a Digidata 1440A digitizer (Axon Instruments). Microelectrode resistances were 0.1–1 MΩ when filled with 3 M KCl. For recording TRP channel currents, the external recording solution contained (in mM) 100 KCl, 10 HEPES, pH 7.6 (with KOH). […]
For temperature-activation experiments, calcium-activated chloride currents were minimized by using calcium-free solution containing 30 µM Caccinh-A01 and recording at negative membrane voltages. Heat stimuli were achieved by passing the external recording solution through glass capillary spirals immersed in a water bath maintained at about 70°C, and recordings were performed during constant perfusion with temperature measured using a thermistor (TA-29, Warner Instruments) located close to the cell. […] The mean I vs T relations were calculated by automatically binning each of the recordings in temperature intervals of 2°C, and averaging a single data point within each interval per cell. […]

[2] = molecular target: T1, TRPV3-6M + 5PM (Mus musculus, UniProt Q8K424, A560T/A606V/F522S/F625L/F656I/F666Y/H523E/L557M/Q580E/V587L/W521Y); assay: Two-electrode voltage clamp, TRPV3-6M + 5PM in oocytes; format: cell-based; details: capsaicin 20 μM, ±60 mV
T1 construct: expressed in transfected cells; host or cells: Xenopus laevis oocytes
T1 sequence (Q8K424 1-791 W521Y/F522S/H523E/L557M/A560T/Q580E/V587L/A606V/F625L/F656I/F666Y): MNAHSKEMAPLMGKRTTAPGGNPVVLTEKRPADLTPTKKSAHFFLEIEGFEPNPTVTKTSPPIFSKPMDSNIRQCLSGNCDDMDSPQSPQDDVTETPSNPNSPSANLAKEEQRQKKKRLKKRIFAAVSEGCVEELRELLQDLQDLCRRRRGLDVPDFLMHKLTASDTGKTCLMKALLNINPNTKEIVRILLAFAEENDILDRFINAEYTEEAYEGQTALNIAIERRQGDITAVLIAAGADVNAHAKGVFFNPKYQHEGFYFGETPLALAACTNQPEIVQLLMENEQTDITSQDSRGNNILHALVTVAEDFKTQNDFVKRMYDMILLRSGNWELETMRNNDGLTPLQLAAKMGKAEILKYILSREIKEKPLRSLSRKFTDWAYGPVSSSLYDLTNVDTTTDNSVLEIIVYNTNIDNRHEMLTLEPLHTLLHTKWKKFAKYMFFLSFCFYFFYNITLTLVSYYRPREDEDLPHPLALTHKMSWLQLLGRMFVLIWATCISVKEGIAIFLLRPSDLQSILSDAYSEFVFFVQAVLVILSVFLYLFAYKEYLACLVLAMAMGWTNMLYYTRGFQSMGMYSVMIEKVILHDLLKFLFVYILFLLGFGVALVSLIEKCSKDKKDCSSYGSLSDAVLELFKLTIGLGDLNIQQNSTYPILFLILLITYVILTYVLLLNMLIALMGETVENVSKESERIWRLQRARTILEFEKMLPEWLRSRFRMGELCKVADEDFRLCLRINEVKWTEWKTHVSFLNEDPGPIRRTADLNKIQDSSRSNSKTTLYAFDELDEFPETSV
Experimental: All channel constructs were expressed in Xenopus laevis oocytes and studied using the two-electrode voltage clamp technique (TEVC) following 1–4 days of incubation after cRNA injection. The animal care and experimental procedures were performed in accordance with the Guide for the Care and Use of Laboratory Animals and were approved by the Animal Care and Use Committee of the National Institute of Neurological Disorders and Stroke (Animal protocol number 1253–17). Oocytes were removed surgically and incubated with agitation for 1 hr in a solution containing (in mM) 82.5 NaCl, 2.5 KCl, 1 MgCl2, 5 HEPES, pH 7.6 (with NaOH), and collagenase (2 mg/ml; Worthington Biochemical, Lakewood, NJ). Defolliculated oocytes were injected with cRNA for each of the constructs and incubated at 17°C in a solution containing (in mM) 96 NaCl, 2 KCl, 1 MgCl2, 1.8 CaCl2, 5 HEPES, pH 7.6 (with NaOH), and gentamicin (50 μg/ml, GIBCO-BRL, Gaithersburg, MD). Oocyte membrane voltage was controlled using an OC-725C oocyte clamp (Warner Instruments, Hamden, CT). Data were filtered at 1–3 kHz and digitized at 20 kHz using pClamp software (Molecular Devices, Sunnyvale, CA) and a Digidata 1440A digitizer (Axon Instruments). Microelectrode resistances were 0.1–1 MΩ when filled with 3 M KCl. For recording TRP channel currents, the external recording solution contained (in mM) 100 KCl, 10 HEPES, pH 7.6 (with KOH). Experiments were performed at room temperature (~22°C), except as indicated otherwise. […] Current time courses were obtained by stepping membrane voltage every 2 s from a holding potential of 0 mV to either −60 or +60 mV for 100 ms, and plotting the mean steady-state current at the end of each voltage step as a function of total recording time. I-V relations were obtained similarly, but voltage was stepped every 2 s to a different value, in 10 mV increments and starting at −60 mV.

Compound	block of RTx-activated current [1]	channel activation (current response) [2]
N.N.N.N.N.N.N.N.N.N.N.N.N.N.[Cl-].[Cl-].[Cl-].[Cl-].[Cl-].[Cl-].[O-2].[O-2].[Ru+3].[Ru+3].[Ru+4] [RR, ruthenium red]	readily blocked	–
COc1cc(CNC(=O)CCCC/C=C/C(C)C)ccc1O [capsaicin]	–	cannot be activated
